Measurements published in patent US5436251A, “Treatment of anxiety and gastrointestinal disorders with azabicyclo carbonyl-2-(cyclopropylmethyloxy)benzamide” (John Wyeth & Brother, Limited, priority 1992, dated 1995).

Tests used:
[1] = Potential anxiolytic activity: mouse exploratory activity in a two-compartment light/dark box; assay type: in vivo; conditions: for minimal effective dose: Mus musculus, sc, read-out: minimum effective dose (MED)
Method: Compound A, the compound of GB 2236528A and a representative number of compounds disclosed in GB 2213816A which had high pA2 values in the 5-HT3 -antagonist test procedure given above were tested for potential anxiolytic activity by a test procedure measuring mouse exploratory activity in a two-compartment light/dark box based upon the procedure of B Costall et al, Neuropharmacology, 1987, 26, 195-200 and J. N. Crawley et al, Pharmac. Biochemo Behav., 1980, 13, 167-170. The test involves observing groups of mice placed in an open topped box, one third of which is painted black and illuminated under a dim red light and partitioned from the remainder of the box which is painted white and brightly illuminated. Access between the two sections is via an opening in the centre of the partition. The groups of mice are treated with vehicle or test compound and various behavioural parameters of the animals are measured including the number of exploratory rearings made by the mice in each section and the number of times the mice cross lines marked on the floor of each section. For each treatment group the mean numbers of line crossings and rears in each section of the box are calculated. Differences between drug-treated groups and vehicle-treated controls are compared using Student's unpaired t-test. […] Test compounds are considered to be active if they induce a similar set of changes and, in particular, if they produce a significant (p<0.05) increase in rearing activity in the light section of the box.

5-HT3 receptors = molecular target: T1, 5-HT3 receptors (Rattus norvegicus, UniProt P35563); test: 5-HT3 antagonistic activity in the rat vagus (antagonism of 5-HT depolarization of isolated vagus nerve, Schild analysis); set-up: species or system rat (Sprague-Dawley); conditions: for Kb: antagonism of 5-HT depolarization, rat vagus nerve in vitro, Schild analysis, read-out: pA2 (converted)
T1 construct: from tissue; host or cells: isolated vagus nerve segments, Sprague-Dawley rat
T1 sequence (P35563 24-483): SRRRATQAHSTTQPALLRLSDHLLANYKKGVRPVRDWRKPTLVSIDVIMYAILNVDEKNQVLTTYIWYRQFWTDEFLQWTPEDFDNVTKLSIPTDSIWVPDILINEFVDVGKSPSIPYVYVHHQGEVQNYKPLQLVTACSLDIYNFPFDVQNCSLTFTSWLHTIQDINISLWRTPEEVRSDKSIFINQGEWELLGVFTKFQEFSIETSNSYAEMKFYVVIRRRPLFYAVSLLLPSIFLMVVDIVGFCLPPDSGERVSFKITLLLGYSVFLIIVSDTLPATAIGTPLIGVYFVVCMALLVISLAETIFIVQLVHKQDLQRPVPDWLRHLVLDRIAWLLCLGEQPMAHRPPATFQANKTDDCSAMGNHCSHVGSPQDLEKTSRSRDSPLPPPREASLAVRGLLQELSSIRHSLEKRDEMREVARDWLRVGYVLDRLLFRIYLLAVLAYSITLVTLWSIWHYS
Method: Compound A, the compound of GB 2236528A and the compounds disclosed in GB 2213816A are tested for 5-HT3 antagonistic activity in the rat vagus by the following procedure:
The method is similar to that described by Ireland and Tyers, Br. J. Pharmac., 1987, 90, 229-238 and is dependent upon the ability of 5-HT to depolarize the vagus nerve in vitro.
Segments of the vagus nerve from Sprague-Dawley rats were placed in a perspex chamber and perfused with Krebs solution. Electrodes, positioned at either end of the nerve segment, were used to record the potential differences which ensued upon the addition of various concentrations of 5-HT to one end of the nerve segment.
Concentration-response curves to 5-HT were obtained in this manner prior to and following equilibration of the nerve segment with Krebs solution containing the test-substance.

[2] = significant (p<0.05) increase in rearing activity in the light section

| SMILES | minimum effective dose (MED) ([1]; s.c., significant (p<0.05) increase in rearing activity in the light section) | minimal effective dose [1, 2] | potency as potential anxiolytic compared with GB 2236528A and GB 2213816A compounds ([1]; mouse light/dark box, s.c., comparison in words) | Kb (5-HT3 receptors) | potency as 5-HT3 antagonist compared with GB 2236528A and GB 2213816A compounds (5-HT3 receptors; rat vagus, comparison in words) |
| --- | --- | --- | --- | --- | --- |
| O=C(NC(=O)c1ccccc1OCC1CC1)NC1CC2CCC(C1)N2 (stereo not shown) [Example 1] | 0.1 mg/kg |  |  |  |  |
| O=C(NC(=O)c1ccccc1OCC1CC1)N[C@H]1C[C@H]2CC[C@@H](C1)N2 [Compound A, (endo)-N-[[[8-azabicyclo[3.2.1]-octan-3-yl]amino]carbonyl]-2-(cyclopropylmethyloxy)benzamide] |  | 0.001 mg/kg | surprisingly more potent | 398 pM | surprisingly more potent as 5-HT3 -antagonists |
| CN1[C@@H]2CC[C@H]1C[C@@H](NC(=O)NC(=O)c1ccccc1OCC1CC1)C2 [Compound of GB 2236528A, (endo)-N-[[(8-methyl-8-azabicyclo[3.2.1]octan-3-yl)amino]carbonyl]-2-(cyclopropylmethoxy]benzamide] |  | 0.01 mg/kg |  | 1260 pM |  |
